Entries after “also recorded” stand apart in the source; their conditions may differ.
Columns and labels:
PRMT7 [1] = target: PRMT7 (Homo sapiens, UniProt Q9NVM4); settings: cited from earlier work
PRMT1 [2] = target: T1, PRMT1 (Homo sapiens, UniProt Q99873); assay: thermal shift assay PRMT1; type: binding; settings: 100 μM compound, 10 μM protein
T1 construct: made in house
Description: (§1) The fluorescence-based thermal shift assay was performed using a StepOne plus qPCR instrument (Thermal Fisher). For PRMT1, 10 μM of protein was mixed with 2× sypro orange and DMSO, or 100 μM SAM, or 100 μM YD1113, or 100 μM YD1290 in a buffer consisting of 2.5 mM HEPES (pH=7.0), 25 mM NaCl, 25 μM EDTA, 50 μM TCEP, 0.01% Triton X-100. For PRMT3, 20 μM of protein was mixed with 2× sypro orange and DMSO, or 100 μM SAM, or 100 μM YD1113, or 100 μM YD1290 in a buffer consisting of 20 mM Tris (pH=7.5), 0.01% Triton X-100. For PRMT4, 20 μM of protein was mixed with 2× sypro orange and DMSO, or 100 μM SAM, or 100 μM YD1113, or 100 μM YD1290 in a buffer consisting of 20 mM bicine (pH=8.5), 0.01% Triton X-100. All samples were heated from 25° C. to 75° C. at an increased rate of 0.5° C. per minute. Protein denaturation was monitored by the increased fluorescence signal of Sypro Orange, which captures exposed hydrophobic residues during thermal unfolding. The recorded curves were analyzed by the software StepOne plus and plotted in GraphPad Prism 8 software.
(§2) Next, the thermal shift assay (TSA) was conducted as an orthogonal method to examine the effects of YD1290 on the thermal stability of PRMT1, 3, and 4 (Figure S1).

PRMT4 [3] = target: T2, PRMT4 (Homo sapiens, UniProt Q86X55); assay: thermal shift assay PRMT4; type: binding; settings: 100 μM compound, 20 μM protein
T2 construct: PRMT4 (residues 140-480) was cloned into the pFBOH-MHL vector; tag of the pFBOH-MHL vector (poly-His implied by Ni-NTA purification; not described); made in house; host or cells: Sf9 insect cells
Description: as §1, §2

PRMT3 [4] = target: T3, PRMT3 (Homo sapiens, UniProt O60678); assay: thermal shift assay PRMT3; type: binding; design: PRMT3 (residues 211-531) was cloned into the pET28a-MHL expression vector; tag of the pET28a-MHL vector (not described); made in house; host or cells: Escherichia coli BL21(DE3); settings: 100 μM compound, 20 μM protein
T3 sequence (O60678 211-531): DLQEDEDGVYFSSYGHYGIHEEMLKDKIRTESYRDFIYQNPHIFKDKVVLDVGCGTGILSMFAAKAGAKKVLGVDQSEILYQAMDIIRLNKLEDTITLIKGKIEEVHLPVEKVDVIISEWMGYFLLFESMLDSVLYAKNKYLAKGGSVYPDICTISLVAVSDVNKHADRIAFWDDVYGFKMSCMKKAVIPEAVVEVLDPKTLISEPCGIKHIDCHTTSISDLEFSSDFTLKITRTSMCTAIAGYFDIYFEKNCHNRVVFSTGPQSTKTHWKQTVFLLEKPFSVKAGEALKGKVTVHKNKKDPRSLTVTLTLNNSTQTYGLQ
Description: as §1, §2

DOT1L = settings: cited from earlier work
PRMT3 [5] = assay: SAHH-coupled fluorescence assay, inhibition of PRMT3; type: biochemical; settings: read-out: IC50 [µM] | PRMT3
Description: A fluorescence-based SAHH-coupled assay was applied to study the inhibition activity of all synthesized compounds on PRMT 1 and 3.
(§3) The PRMT3 methylation assay was performed under the following conditions in a final well volume of 100 μL: 20 mM Tris (pH=7.5), 0.01% Triton X-100, 5 μM SAHH, 0.25 μM PRMT3, 30 μM AdoMet, and 15 μM ThioGlo4. […] Fluorescence was monitored on a BMG CLARIOstar microplate reader with excitation 380 nm and emission 505 nm. Data were processed by using GraphPad Prism software 8.0. All experiments were performed in duplicate.
(§4) Next, the inhibition activity of the library was investigated for five PRMT members from type I PRMTs.
as §3, with “8.0.” for “8.0. All experiments were performed in duplicate.”

PRMT3 [6] = target: T3, PRMT3; assay: as above; type: biochemical; design: PRMT3 (residues 211-531) was cloned into the pET28a-MHL expression vector; tag of the pET28a-MHL vector (not described); made in house; host or cells: Escherichia coli BL21(DE3)
How it was run: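 Coupled SAHH/ThioGlo4 fluorescence read-out (ex 380 nm, em 505 nm) of PRMT3 (0.25 μM) methylation with 30 μM AdoMet and 5 μM SAHH. Buffer was 20 mM Tris pH 7.5 with 0.01% Triton X-100. Run in duplicate.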

PRMT8 [7] = target: T4, PRMT8 (Homo sapiens, UniProt Q9NR22); assay: radioactive assay (Reaction Biology Corp.), inhibition of PRMT8; type: biochemical
T4 sequence (Q9NR22 whole entry, species assumed): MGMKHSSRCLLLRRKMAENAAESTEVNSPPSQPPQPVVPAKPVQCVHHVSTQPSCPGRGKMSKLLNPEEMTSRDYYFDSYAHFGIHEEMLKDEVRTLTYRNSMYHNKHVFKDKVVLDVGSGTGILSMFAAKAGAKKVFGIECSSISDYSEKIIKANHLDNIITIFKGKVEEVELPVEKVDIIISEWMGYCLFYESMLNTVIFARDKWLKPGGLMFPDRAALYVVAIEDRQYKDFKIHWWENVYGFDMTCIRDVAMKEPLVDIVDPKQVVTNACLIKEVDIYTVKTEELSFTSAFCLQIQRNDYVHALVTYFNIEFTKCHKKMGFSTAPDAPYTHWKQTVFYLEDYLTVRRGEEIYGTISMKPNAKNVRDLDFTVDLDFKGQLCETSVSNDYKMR
Description: as §4
(§5) The PRMT 4, 6 and 8 methylation assays were performed by Reaction Biology corp.

PRMT6 [8] = target: T5, PRMT6 (Homo sapiens, UniProt Q96LA8); assay: radioactive assay (Reaction Biology Corp.), inhibition of PRMT6; type: biochemical
T5 sequence (Q96LA8 whole entry, species assumed): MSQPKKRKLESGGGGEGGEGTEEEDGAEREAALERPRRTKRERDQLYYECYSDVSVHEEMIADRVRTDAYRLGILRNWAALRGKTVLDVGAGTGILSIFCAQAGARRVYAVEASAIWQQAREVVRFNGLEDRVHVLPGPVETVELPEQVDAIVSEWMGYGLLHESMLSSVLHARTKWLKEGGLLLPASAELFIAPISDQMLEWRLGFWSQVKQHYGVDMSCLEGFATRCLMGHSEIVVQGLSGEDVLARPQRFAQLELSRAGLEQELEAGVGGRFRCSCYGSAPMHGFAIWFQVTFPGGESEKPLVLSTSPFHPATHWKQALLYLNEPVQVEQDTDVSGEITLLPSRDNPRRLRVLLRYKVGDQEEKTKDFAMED
Description: as §4, §5

PRMT4 [9] = assay: radioactive assay (Reaction Biology Corp.), inhibition of PRMT4; type: biochemical
Description: as §4, §5

PRMT4 [10] = target: T6, PRMT4 (Homo sapiens, UniProt Q86X55); assay: as above; type: biochemical
T6 sequence (Q86X55 1-608): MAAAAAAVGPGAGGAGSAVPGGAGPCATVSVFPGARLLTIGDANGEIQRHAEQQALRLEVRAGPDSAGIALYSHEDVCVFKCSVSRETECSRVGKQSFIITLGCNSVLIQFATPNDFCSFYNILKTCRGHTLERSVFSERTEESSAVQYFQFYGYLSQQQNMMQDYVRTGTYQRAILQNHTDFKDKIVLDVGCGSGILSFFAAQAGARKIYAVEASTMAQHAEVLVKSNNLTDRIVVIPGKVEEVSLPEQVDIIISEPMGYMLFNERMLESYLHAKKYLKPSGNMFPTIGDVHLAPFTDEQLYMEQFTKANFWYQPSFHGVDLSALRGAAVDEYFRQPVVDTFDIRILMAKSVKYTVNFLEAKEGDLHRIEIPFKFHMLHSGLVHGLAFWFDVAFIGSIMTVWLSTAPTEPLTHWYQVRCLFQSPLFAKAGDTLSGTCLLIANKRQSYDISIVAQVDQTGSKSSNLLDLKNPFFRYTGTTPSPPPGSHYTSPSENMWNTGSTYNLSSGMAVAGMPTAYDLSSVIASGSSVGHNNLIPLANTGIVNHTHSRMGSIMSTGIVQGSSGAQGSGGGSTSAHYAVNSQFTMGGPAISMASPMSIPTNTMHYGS
Description: as §4, §5

PRMT1 [11] = target: T1, PRMT1; assay: SAHH-coupled fluorescence assay, inhibition of PRMT1; type: biochemical
How it was run: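 PRMT1 (0.1 μM) was run with 10 μM AdoMet, 5 μM SAHH and 10 μM ThioGlo4 in 2.5 mM HEPES pH 7.0, 25 mM NaCl, 25 μM EDTA, 50 μM TCEP and 0.01% Triton X-100. Fluorescence (ex 400/em 465 nm) was monitored for 15 min. Assays were done in duplicate.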

PRMT 5/7 = settings: cited from earlier work
PRMT3 [12] = assay: selectivity of YD1113/YD1290 on PRMT panel, PRMT3; type: biochemical
Description: (§6) The selectivity of compounds YD1113 and YD1290 on PRMTs were performed by Reaction Biology Corp.
(§7) Next, the selectivity of YD1113 was investigated on a panel of PRMTs at 10 μM.
(§8) After validating the benzyl urea moiety as an unconventional homocysteine mimic of SAH for PRMTs, it was hypothesized that incorporating the benzyl urea moiety into the original pan PRMT inhibitor II757 would build a potent bisubstrate inhibitor. […] To enable a stable tri-substitution, the sulfur atom with a nitrogen atom was replaced. YD1290 was synthesized following the reported methods 9, 15 and tested in a radioactivity assay for PRMTs (FIG. 6b).

PRMT5 = PRMT5 (Homo sapiens, UniProt O14744); assay: selectivity of YD1113 on PRMT panel, PRMT5; type: biochemical; settings: read-out: IC50 (nM) | PRMT5
PRMT5, sequence (O14744 whole entry, species assumed): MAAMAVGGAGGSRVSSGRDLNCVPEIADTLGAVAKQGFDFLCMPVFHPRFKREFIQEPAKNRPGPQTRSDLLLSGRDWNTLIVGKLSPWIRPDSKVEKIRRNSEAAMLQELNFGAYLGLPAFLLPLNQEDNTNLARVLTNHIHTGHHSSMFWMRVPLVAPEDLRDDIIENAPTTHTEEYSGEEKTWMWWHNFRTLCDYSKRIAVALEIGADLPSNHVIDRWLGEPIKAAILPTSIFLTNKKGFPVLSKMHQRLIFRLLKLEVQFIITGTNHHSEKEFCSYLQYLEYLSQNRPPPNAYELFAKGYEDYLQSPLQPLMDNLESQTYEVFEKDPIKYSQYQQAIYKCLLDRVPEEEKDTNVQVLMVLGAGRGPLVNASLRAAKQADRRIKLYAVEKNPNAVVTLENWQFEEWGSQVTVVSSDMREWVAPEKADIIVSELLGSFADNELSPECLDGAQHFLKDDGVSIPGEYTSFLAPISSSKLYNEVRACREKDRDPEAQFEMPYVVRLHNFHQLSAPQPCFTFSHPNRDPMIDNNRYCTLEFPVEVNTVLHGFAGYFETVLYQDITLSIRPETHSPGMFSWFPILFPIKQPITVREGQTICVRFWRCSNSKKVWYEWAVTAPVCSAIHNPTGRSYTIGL
PRMT5, sequence (Q9BQA1 whole entry partner, species assumed): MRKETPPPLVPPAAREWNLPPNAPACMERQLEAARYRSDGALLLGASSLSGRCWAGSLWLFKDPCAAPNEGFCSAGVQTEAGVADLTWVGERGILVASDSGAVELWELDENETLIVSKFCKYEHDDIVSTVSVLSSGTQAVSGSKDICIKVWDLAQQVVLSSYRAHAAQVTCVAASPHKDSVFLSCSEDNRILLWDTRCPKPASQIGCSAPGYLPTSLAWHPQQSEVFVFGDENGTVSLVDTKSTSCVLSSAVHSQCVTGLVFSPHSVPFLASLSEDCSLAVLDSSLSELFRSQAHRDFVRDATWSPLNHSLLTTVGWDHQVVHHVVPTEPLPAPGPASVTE
Description: as §6, §7

PRMT6 [13] = target: T5, PRMT6; assay: selectivity of YD1113/YD1290 on PRMT panel, PRMT6; type: biochemical
Description: as §6, §7, §8

PRMT7 [14] = assay: selectivity of YD1113 on PRMT panel, PRMT7; type: biochemical
Description: as §6, §7

PRMT1 [15] = target: T1, PRMT1; assay: selectivity of YD1113/YD1290 on PRMT panel, PRMT1; type: biochemical
Description: as §6, §7, §8

PRMT4 [16] = assay: selectivity of YD1113/YD1290 on PRMT panel, PRMT4; type: biochemical
Description: as §6, §7, §8

PRMT8 [17] = target: T4, PRMT8; assay: selectivity of YD1113/YD1290 on PRMT panel, PRMT8; type: biochemical
Description: as §6, §7, §8

T1 sequence (Q99873 whole entry, species assumed): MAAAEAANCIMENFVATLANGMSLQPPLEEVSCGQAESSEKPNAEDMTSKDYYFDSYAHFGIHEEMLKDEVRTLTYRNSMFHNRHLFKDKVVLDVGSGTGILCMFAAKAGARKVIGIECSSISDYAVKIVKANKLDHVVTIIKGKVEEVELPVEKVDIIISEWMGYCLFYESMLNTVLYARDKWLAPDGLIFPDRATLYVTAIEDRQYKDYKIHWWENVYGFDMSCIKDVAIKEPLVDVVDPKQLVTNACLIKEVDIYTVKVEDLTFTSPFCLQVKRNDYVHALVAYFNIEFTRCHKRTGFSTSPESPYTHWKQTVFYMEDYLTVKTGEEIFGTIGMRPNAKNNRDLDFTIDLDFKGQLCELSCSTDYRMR
PRMT7 (Homo sapiens, UniProt Q9NVM4), sequence (Q9NVM4 whole entry, species assumed): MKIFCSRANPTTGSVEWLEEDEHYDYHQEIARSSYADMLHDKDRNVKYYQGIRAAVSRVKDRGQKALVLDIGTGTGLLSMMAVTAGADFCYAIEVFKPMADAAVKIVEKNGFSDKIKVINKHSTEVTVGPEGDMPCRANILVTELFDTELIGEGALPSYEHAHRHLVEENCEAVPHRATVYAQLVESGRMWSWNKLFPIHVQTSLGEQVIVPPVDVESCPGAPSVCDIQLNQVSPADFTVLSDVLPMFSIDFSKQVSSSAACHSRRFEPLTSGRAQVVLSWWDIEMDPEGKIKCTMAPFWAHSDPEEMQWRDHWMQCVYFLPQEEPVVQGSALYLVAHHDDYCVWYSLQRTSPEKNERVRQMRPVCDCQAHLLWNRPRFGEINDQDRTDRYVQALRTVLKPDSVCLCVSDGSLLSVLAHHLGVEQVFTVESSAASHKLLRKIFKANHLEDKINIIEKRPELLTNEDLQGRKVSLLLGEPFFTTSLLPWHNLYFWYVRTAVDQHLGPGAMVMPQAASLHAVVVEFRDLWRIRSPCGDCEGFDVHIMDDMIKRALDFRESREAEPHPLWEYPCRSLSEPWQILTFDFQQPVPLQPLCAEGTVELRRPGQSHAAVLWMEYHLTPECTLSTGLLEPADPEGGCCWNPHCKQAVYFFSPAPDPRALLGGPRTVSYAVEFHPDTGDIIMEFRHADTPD

Compound	IC50 (PRMT3 [5])	inhibition at 10 µM (PRMT3 [6])	inhibition at 10 µM (PRMT8 [7])	inhibition at 10 µM (PRMT6 [8])	IC50 (PRMT4 [9])	inhibition at 10 µM (PRMT4 [10])	inhibition at 10 µM (PRMT1 [11])	IC50 (PRMT3 [12])	IC50 (PRMT5)	IC50 (PRMT6 [13])	IC50 (PRMT7 [14])	IC50 (PRMT1 [15])	IC50 (PRMT4 [16])	IC50 (PRMT8 [17])	PRMT1 inhibition (PRMT1 [11])	other results
Nc1ncnc2c1ncn2C1OC(CSCCCCNCc2cccc(-c3ccc(Cl)cc3)c2)C(O)C1O (stereo not shown) [SGC8158]	–	–	–	–	–	–	–	–	–	–	–	–	–	–	–	PRMT7 inhibition (PRMT7 [1]): selectively inhibits PRMT7; also recorded: selective PRMT7 inhibition; also recorded: selective PRMT7 inhibitor
C[S+](CC[C@H](N)C(=O)O)C[C@H]1O[C@@H](n2cnc3c(N)ncnc32)[C@H](O)[C@@H]1O (stereo partly drawn) [SAM, S-adenosyl-L-methionine, reference compound]	–	–	–	–	–	–	–	–	–	–	–	–	–	–	–	ΔTm PRMT1 (PRMT1 [2]): +1.6 °C; ΔTm PRMT4 (PRMT4 [3]): +1.9 °C; ΔTm PRMT3 (PRMT3 [4]): +1.1 °C
CC(C)N(CCCNC(=O)Nc1ccc(C(C)(C)C)cc1)C[C@H]1O[C@@H](n2ccc3c(N)ncnc32)[C@H](O)[C@@H]1O [EPZ004777]	–	–	–	–	–	–	–	–	–	–	–	–	–	–	–	selectivity for DOT1L (DOT1L): high selectivity
Nc1ncnc2c1ncn2[C@@H]1O[C@H](CSCCNC(=O)NCc2ccc(F)cc2)[C@@H](O)[C@H]1O [Compound 7d, 1-(2-((((2S,3S,4R,5R)-5-(6-amino-9H-purin-9-yl)-3,4-dihydroxytetrahydrofuran-2-yl)methyl)thio)ethyl)-3-(4-fluorobenzyl)urea]	5.9 ± 1.4 µM	62%	8%	25%	0.27 ± 0.06 µM	95%	6%	–	–	–	–	–	–	–	–	fold reduction of PRMT3 inhibition vs YD1113 (PRMT3 [6]; vs YD1113): over 10 fold; PRMT6 inhibition (PRMT6 [8]; 10 μM): inactive to PRMT6
CCNC(=O)NCCSC[C@H]1O[C@@H](n2cnc3c(N)ncnc32)[C@H](O)[C@@H]1O [DS-437]	–	–	–	–	–	–	–	–	–	–	–	–	–	–	–	PRMT 5/7 inhibition (PRMT 5/7): dual inhibition to PRMT 5/7
Nc1ncnc2c1ncn2[C@@H]1O[C@H](CSCCNC(=O)Nc2cccc3ccccc23)[C@@H](O)[C@H]1O [Compound 7l, 1-(2-((((2S,3S,4R,5R)-5-(6-amino-9H-purin-9-yl)-3,4-dihydroxytetrahydrofuran-2-yl)methyl)thio)ethyl)-3-(naphthalen-1-yl)urea]	81 ± 17 µM	1%	5%	2%	0.47 ± 0.12 µM	88%	13%	–	–	–	–	–	–	–	–	fold reduction of PRMT3 inhibition vs 1h (PRMT3 [6]; vs phenyl (1h)): over 40 fold
N=C(NCCCSC[C@H]1O[C@@H](n2cnc3c(NCc4cn(Cc5ccccc5)nn4)ncnc32)C(O)[C@H]1O)Nc1cccc(Br)c1 (stereo in doubt) [YD1-254]	–	–	–	–	–	–	–	3620 nM	1790 nM	25 nM	> 30000 nM	14 nM	1680 nM	40 nM	PRMT1 inhibitors	–
N=C(NCCCSC[C@H]1O[C@@H](n2cnc3c(NCC#Cc4ccc(O)cc4)ncnc32)C(O)[C@H]1O)Nc1cccc(Br)c1 (stereo in doubt) [YD1-250]	–	–	–	–	–	–	–	1640 nM	136 nM	44 nM	2640 nM	7.6 nM	203 nM	38 nM	PRMT1 inhibitors	–
N=C(NCCCSC[C@H]1O[C@@H](n2cnc3c(NCC#Cc4ccccc4)ncnc32)[C@H](O)[C@@H]1O)Nc1cccc(Br)c1 [YD1-248]	–	–	–	–	–	–	–	2370 nM	1380 nM	25 nM	5570 nM	3.35 nM	2760 nM	24 nM	PRMT1 inhibitors	–
Nc1ncnc2c1ncn2[C@@H]1O[C@H](CSCCCNC(=O)NCc2ccccc2)[C@@H](O)[C@H]1O [Compound 7p, 1-(3-((((2S,3S,4R,5R)-5-(6-amino-9H-purin-9-yl)-3,4-dihydroxytetrahydrofuran-2-yl)methyl)thio)propyl)-3-benzylurea]	70 ± 11 µM	13%	12%	67%	3.6 ± 0.42 µM	76%	7%	–	–	–	–	–	–	–	–	inhibition at 70 µM (PRMT3 [6]; 70 μM): 50%

— patent US20260306527A1, “PRMT INHIBITOR COMPOUNDS AND THE USES THEREOF” (Purdue Research Foundation, priority 2023, published 2026)
